PMC11129182, “Development of Inhibitors, Probes, and PROTAC Provides a Complete Toolbox to Study PARK7 in the Living Cell” (Journal of Medicinal Chemistry, 2024)

target: T1, PARK7 (Homo sapiens, UniProt Q99497); test: High-throughput screen of the crude compound library, PARK7 fluorescence polarization (FP) assay with FP reagent JYQ-107; format: biochemical; conditions: 1.25 µM, crude compound library; read-out: HTS FP assay %Inhibition (1.25 µM)
T1 sequence (Q99497 1-189): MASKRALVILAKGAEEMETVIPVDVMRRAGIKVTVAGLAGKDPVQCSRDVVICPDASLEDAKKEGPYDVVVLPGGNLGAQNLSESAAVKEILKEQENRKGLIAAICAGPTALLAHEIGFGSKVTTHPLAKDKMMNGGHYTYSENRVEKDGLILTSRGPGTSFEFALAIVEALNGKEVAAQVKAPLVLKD

Structure (SMILES)	inhibition at 1.25 µM
COc1ccc(CC(=O)N2CCc3nc(NC(=O)[C@@H]4CCN(C#N)C4)sc3C2)cc1S(=O)(=O)N1CCOCC1 [compound 257]	75.5%
Cc1noc(C)c1S(=O)(=O)N1CCCC1C(=O)N1CCc2nc(NC(=O)[C@@H]3CCN(C#N)C3)sc2C1 (stereo partly drawn) [compound 259]	69.8%
Cc1cc(C(=O)N(C)c2ccccc2C(=O)N2CCc3nc(NC(=O)[C@@H]4CCN(C#N)C4)sc3C2)sc1C [compound 260]	61.7%
N#CN1CC[C@@H](C(=O)Nc2nc3c(s2)CN(C(=O)c2ccc(N4CCCCCC4)nc2)CC3)C1 [compound 261]	84.5%
N#CN1CC[C@@H](C(=O)Nc2nc3c(s2)CN(C(=O)CC2=NN(c4cccc(Cl)c4)C(=O)C2)CC3)C1 [compound 262]	71.9%
Cc1oc(-c2cccs2)nc1C(=O)N1CCc2nc(NC(=O)[C@@H]3CCN(C#N)C3)sc2C1 [compound 263]	78.3%
N#CN1CC[C@@H](C(=O)Nc2nc3c(s2)CN(C(=O)c2ccnc(C4CC4)n2)CC3)C1 [compound 264]	67.7%
Cn1ccnc1CN1CCC(C(=O)N2CCc3nc(NC(=O)[C@@H]4CCN(C#N)C4)sc3C2)CC1 [compound 265]	70.6%
N#CN1CC[C@@H](C(=O)Nc2nc3c(s2)CN(C(=O)c2cc(C4CC4)no2)CC3)C1 [compound 266]	73.2%
N#CN1CC[C@@H](C(=O)Nc2nc3c(s2)CN(C(=O)C2CCN(C(=O)c4ccc(Cl)s4)CC2)CC3)C1 [compound 267]	75.5%
CC1CN(c2ccc(C(=O)N3CCc4nc(NC(=O)[C@@H]5CCN(C#N)C5)sc4C3)cn2)CC(C)O1 (stereo partly drawn) [compound 269]	85.9%
N#CN1CC[C@@H](C(=O)Nc2nc3c(s2)CN(C(=O)c2csc(C4CCCCC4)n2)CC3)C1 [compound 270]	87.2%
N#CN1CC[C@@H](C(=O)Nc2nc3c(s2)CN(C(=O)c2occc2-c2ccccc2)CC3)C1 [compound 271]	81.3%
N#CN1CC[C@@H](C(=O)Nc2nc3c(s2)CN(C(=O)c2ccc(Cn4cccn4)s2)CC3)C1 [compound 272]	83.3%
N#CN1CC[C@@H](C(=O)Nc2nc3c(s2)CN(C(=O)C2CC4CCC2O4)CC3)C1 (stereo partly drawn) [compound 273]	67.4%
N#CN1CC[C@@H](C(=O)Nc2nc3c(s2)CN(C(=O)C2CC4C=CC2O4)CC3)C1 (stereo partly drawn) [compound 275]	72%
N#CN1CC[C@@H](C(=O)Nc2nc3c(s2)CN(C(=O)C2CC=CCC2C(=O)N2CCOCC2)CC3)C1 (stereo partly drawn) [compound 276]	74.3%
N#CN1CC[C@@H](C(=O)Nc2nc3c(s2)CN(C(=O)c2cccc(N4CCOCC4)n2)CC3)C1 [compound 277]	64.6%
N#CN1CC[C@@H](C(=O)Nc2nc3c(s2)CN(C(=O)c2cccc(Cn4cncn4)c2)CC3)C1 [compound 278]	80.6%
N#CN1CC[C@@H](C(=O)Nc2nc3c(s2)CN(C(=O)c2ccc(Cn4ccnn4)o2)CC3)C1 [compound 280]	81.9%
Cc1onc(C(=O)N2CCc3nc(NC(=O)[C@@H]4CCN(C#N)C4)sc3C2)c1CN1CCOCC1 [compound 281]	62.3%
N#CN1CC[C@@H](C(=O)Nc2nc3c(s2)CN(C(=O)C2CCN(S(=O)(=O)N4CCCCC4)CC2)CC3)C1 [compound 282]	72.8%
CC1(C(=O)N2CCc3nc(NC(=O)[C@@H]4CCN(C#N)C4)sc3C2)CCCCN1C(=O)OCc1ccccc1 (stereo partly drawn) [compound 283]	65.2%
N#CN1CC[C@@H](C(=O)Nc2nc3c(s2)CN(C(=O)c2sccc2S(=O)(=O)NC2CCCCCC2)CC3)C1 [compound 284]	75.9%

Structure (SMILES)	inhibition at 1.25 µM
CCn1nccc1-c1cc(C(=O)N2CCc3nc(NC(=O)[C@@H]4CCN(C#N)C4)sc3C2)no1 [compound 285]	81.3%
N#CN1CC[C@@H](C(=O)Nc2nc3c(s2)CN(C(=O)c2cccc(C(=O)N4CCCC4)n2)CC3)C1 [compound 286]	81.9%
N#CN1CC[C@@H](C(=O)Nc2nc3c(s2)CN(C(=O)[C@@H]2CCCO[C@H]2c2ccccc2)CC3)C1 [compound 287]	64.1%
N#CN1CC[C@@H](C(=O)Nc2nc3c(s2)CN(C(=O)C2CCCN(S(=O)(=O)c4cccs4)C2)CC3)C1 (stereo partly drawn) [compound 288]	78.6%
N#CN1CC[C@@H](C(=O)Nc2nc3c(s2)CN(C(=O)c2ccc(Cn4cc(Cl)c(C(F)(F)F)n4)o2)CC3)C1 [compound 289]	81.4%
COc1ccc(C(=O)N2CCc3nc(NC(=O)[C@@H]4CCN(C#N)C4)sc3C2)cc1S(=O)(=O)N(C)CCc1cccnc1 [compound 290]	67.7%
N#CN1CC[C@@H](C(=O)Nc2nc3c(s2)CN(C(=O)CC2CCN(c4ccc(C(F)(F)F)cn4)CC2)CC3)C1 [compound 291]	79.8%
N#CN1CC[C@@H](C(=O)Nc2nc3c(s2)CN(C(=O)c2cccnc2-n2cncn2)CC3)C1 [compound 292]	73.8%
CCc1ccc(C(=O)N2CCC(C(=O)N3CCc4nc(NC(=O)[C@@H]5CCN(C#N)C5)sc4C3)CC2)o1 [compound 294]	78.1%
Cc1nc(-c2ccsc2)ccc1C(=O)N1CCc2nc(NC(=O)[C@@H]3CCN(C#N)C3)sc2C1 [compound 296]	73.2%
CN(C)S(=O)(=O)c1ccc(N2CCCCC2)c(C(=O)N2CCc3nc(NC(=O)[C@@H]4CCN(C#N)C4)sc3C2)c1 [compound 297]	56.1%
N#CN1CC[C@@H](C(=O)Nc2nc3c(s2)CN(C(=O)c2cnc(Cc4ccc(F)cc4)s2)CC3)C1 [compound 298]	79.5%
Cc1cc(C)cc(N(CCC(=O)N2CCc3nc(NC(=O)[C@@H]4CCN(C#N)C4)sc3C2)S(=O)(=O)c2ccc(Cl)cc2)c1 [compound 299]	87.8%
N#CN1CC[C@@H](C(=O)Nc2nc3c(s2)CN(C(=O)c2csc(CCc4ccccc4)n2)CC3)C1 [compound 300]	86.1%
N#CN1CC[C@@H](C(=O)Nc2nc3c(s2)CN(C(=O)c2ccc(-c4nnco4)cc2)CC3)C1 [compound 301]	85.9%
N#CN1CC[C@@H](C(=O)Nc2nc3c(s2)CN(C(=O)c2ccccc2Cn2cncn2)CC3)C1 [compound 302]	66.3%
N#CN1CC[C@@H](C(=O)Nc2nc3c(s2)CN(C(=O)Cc2cnn(Cc4ccccc4)c2)CC3)C1 [compound 303]	80.8%
CNS(=O)(=O)c1ccc(-c2ccc(Cl)c(Cl)c2)c(C(=O)N2CCc3nc(NC(=O)[C@@H]4CCN(C#N)C4)sc3C2)c1 [compound 305]	74.8%
N#CN1CC[C@@H](C(=O)Nc2nc3c(s2)CN(C(=O)Cc2csc(N4CCCC4=O)n2)CC3)C1 [compound 306]	76%
CC1CN(S(=O)(=O)c2ccc(C(=O)N3CCc4nc(NC(=O)[C@@H]5CCN(C#N)C5)sc4C3)cc2)CC(C)O1 (stereo partly drawn) [compound 307]	84.8%
Cc1ncsc1C(=O)N(C)c1ccccc1C(=O)N1CCc2nc(NC(=O)[C@@H]3CCN(C#N)C3)sc2C1 [compound 308]	64.6%
N#CN1CC[C@@H](C(=O)Nc2nc3c(s2)CN(C(=O)Cc2ccc(-n4cccc4)cc2)CC3)C1 [compound 309]	80.2%
N#CN1CC[C@@H](C(=O)Nc2nc3c(s2)CN(C(=O)c2sccc2-n2cccc2)CC3)C1 [compound 310]	85.3%
Cc1ccc(Oc2ccc(C(=O)N3CCc4nc(NC(=O)[C@@H]5CCN(C#N)C5)sc4C3)nc2)cc1 [compound 316]	85.7%
